Data reported in ChEMBL document CHEMBL5036329, “4-Methyl-1,2,3-Triazoles as N-Acetyl-Lysine Mimics Afford Potent BET Bromodomain Inhibitors with Improved Selectivity” (J Med Chem, 2021).
pKd: −log10 of the molar value.

Assays:
[1] = Microsomal stability in human liver microsomes assessed as fraction unbound measured upto 60 mins in presence of NADPH regenerating system by LC-MS analysis; assay type: ADME, Microsome; settings: 1 h
[2] = target: T1, Bromodomain testis-specific protein (Homo sapiens, UniProt Q58F21); assay: Binding affinity to human partial length BRDT BD2 expressed in bacterial expression system assessed as dissociation constant by BROMOscan assay
[3] = target: T2, Bromodomain-containing protein 3 (Homo sapiens, UniProt Q15059); assay: Binding affinity to human partial length BRD3 BD2 expressed in bacterial expression system assessed as dissociation constant by BROMOscan assay
[4] = target: T2, Bromodomain-containing protein 3; assay: Binding affinity to human partial length BRD3 BD1 expressed in bacterial expression system assessed as dissociation constant by BROMOscan assay
[5] = target: T1, Bromodomain testis-specific protein; assay: Binding affinity to human partial length BRDT BD1 expressed in bacterial expression system assessed as dissociation constant by BROMOscan assay

T2 sequence (Q15059 whole entry): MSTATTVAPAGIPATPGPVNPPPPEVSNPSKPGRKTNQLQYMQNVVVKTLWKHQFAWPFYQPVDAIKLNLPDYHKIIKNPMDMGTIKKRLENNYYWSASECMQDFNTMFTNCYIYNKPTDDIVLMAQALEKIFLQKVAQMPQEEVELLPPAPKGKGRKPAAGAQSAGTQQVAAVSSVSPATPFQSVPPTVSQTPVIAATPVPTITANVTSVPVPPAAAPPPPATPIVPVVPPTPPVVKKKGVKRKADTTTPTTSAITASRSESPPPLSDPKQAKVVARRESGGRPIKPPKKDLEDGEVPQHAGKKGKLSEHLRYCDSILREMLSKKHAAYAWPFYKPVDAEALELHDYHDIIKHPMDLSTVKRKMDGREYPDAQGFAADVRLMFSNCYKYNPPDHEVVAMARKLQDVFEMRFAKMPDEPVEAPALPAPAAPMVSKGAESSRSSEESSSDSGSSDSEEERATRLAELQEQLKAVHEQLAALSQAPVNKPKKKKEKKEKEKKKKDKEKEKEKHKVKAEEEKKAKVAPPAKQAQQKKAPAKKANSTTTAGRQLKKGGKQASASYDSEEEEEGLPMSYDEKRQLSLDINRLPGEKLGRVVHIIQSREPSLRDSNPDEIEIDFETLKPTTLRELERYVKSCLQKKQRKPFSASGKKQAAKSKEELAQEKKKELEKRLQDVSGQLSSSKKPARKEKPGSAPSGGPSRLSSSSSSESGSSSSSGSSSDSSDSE

Row | Compound | Fu [1] | also measured
1 | Cc1cc(C)cc(Oc2cccc(-c3c(C)nnn3C3CCNCC3)n2)c1 | 0.13 | –
2 | Cc1cc(C)cc(Nc2nccc(-c3c(-c4ccc(C(F)(F)F)cc4)ncn3C3CCN(CCN)CC3)n2)c1 | 0.08 | –
3 | Cc1nnn(C2CCN(CCN(C)C)CC2)c1-c1cccc(Oc2cc(Br)ccc2Br)n1 | 0.13 | –
4 | Cc1cc(C)cc(Oc2cccc(-c3c(C)nnn3C3CCN(CCN(C)C)CC3)n2)c1 | 0.14 | pKd [2]: 6.60; pKd [3]: 6.51; pKd [4]: 7.70; pKd [5]: 7.82
5 | Cc1nnn(C2CCNCC2)c1-c1cccc(Oc2cc(C3CC3)cc(C3CC3)c2)n1 | 0.12 | –
6 | Cc1nnn(C2CCNCC2)c1-c1cccc(Oc2cc(Cl)cc(Cl)c2)n1 | 0.11 | –
7 | Cc1nnn(C2CCNCC2)c1-c1cccc(Oc2cc(Br)cc(Br)c2)n1 | 0.09 | –
